Measured values reported in publication PMC9738531, “Cholinesterases Inhibition, Anticancer and Antioxidant Activity of Novel Benzoxazole and Naphthoxazole Analogs” (Molecules, 2022).

How the values were obtained:
[1] = system: normal mammary gland MCF10A cells; test: LDH cytotoxicity assay, MCF10A normal cells; type: cell-based, human; details: 72 h
Experimental: (§1) In view of the observed antiproliferative activity, the influence of the tested compounds on the normal human cells—normal mammary gland epiterial cells of the MCF10A line and the normal keratenocytes HaCaT line—was examined (Figure 5). The cells were treated with compounds 3, 8 and 10 in the concentration range from 0.1 µM to 25 µM for 72 h, after which the cell viability was tested by analysis of the level of released lactate dehydrogenase (LDH method).
(§2) Normal human epithelial cells from the mammary gland, MCF10A (a generous gift from our colleague Dr. Saraswati Sukumar (JHU), who obtained them recently from ATCC), and normal human keratinocytes HaCaT (also obtained from ATCC), were cultured in DMEM/F12 medium (Gibco), supplemented with 5% horse serum (Gibco), 5% FBS (Sigma-Aldrich Chemie GmbH, Taufkirchen, Germany ), penicillin streptomycin solution (1×) (Gibco) at 37 °C and 5% CO2. The cells were subcultured twice a week.
(§3) Human epiterial breast cells MCF10A and human keratinocytes HaCaT (1 × 10^4/mL) cells were placed on 96-well plates (Nunc, Roskilde, Denmark). The next day, the cells were exposed to increasing concentrations of compounds 3, 8 and 10 in 0.1, 0.25, 0.5, 1, 2.5, 5, 10 and 25 μM in fresh culture medium. Cytotoxicity was estimated based on the measurements of cytoplasmic lactate dehydrogenase (LDH) activity released from the damaged cells after the 72 h exposure to the compounds. The LDH assay was performed according to the manufacturer’s instructions (Cytotoxicity Detection KitPLUS LDH, Roche, Mannheim, Germany). Absorbance was measured using a microplate at two different wavelengths: “measurement wavelength” (492 nm) and “reference wavelength” (690 nm), using a microplate.

[2] = system: A549 (non-small cell lung carcinoma) cells; test: SRB antiproliferative assay, A549; type: cell-based, human; details: Homo sapiens, A549, 72 h, means ± SD
Experimental: (§4) The compounds were also evaluated for their antiproliferative potencies against human cancer cell lines as the potential anticancer agents. […]. The results are presented in Table 3 and expressed as IC50 (μM). In that score, the highest potency was shown by the analogs from the naphtho[1,2-d][1,3]oxazole group 8–10, particularly by derivative 10 with a chlorine atom on the benzenediol moiety.
(§5) In the antiproliferative assay in vitro, the following human cell lines were applied: T47D (breast cancer), SW707 (rectal adenocarcinoma), A549 (non-small cell lung carcinoma) from the American Type Culture Collection (Rockville, MD, USA) and HCV29T (bladder cancer) from the Fibiger Institute, Copenhagen, Denmark. Cytotoxicity assay was performed after 72 h exposure of the cultured cells at the concentration ranging from 0.1 to 100 μg/mL of the tested agents. The SRB test measuring the cell proliferation inhibition in the in vitro culture was applied. The cellular material fixed with TCA was stained with 0.4% sulforhodamine B (Chemie GmbH, Steinheim, Germany) dissolved in 1% acetic acid (POCh, Gliwice, Poland) for 30 min.

[3] = system: HCV29T (bladder cancer) cells; test: SRB antiproliferative assay, HCV29T; type: cell-based, human; details: Homo sapiens, HCV29T, 72 h, means ± SD, read-out: IC50 HCV 29T
Experimental: as §4, §5

[4] = system: normal keratinocytes HaCaT cells; test: LDH cytotoxicity assay, HaCaT normal cells; type: cell-based, human; details: HaCaT, tested concentration to 25 µM, 72 h
Experimental: as §1, §2, §3

[5] = DPPH free radical scavenging activity; details: concentration scavenging 50% of DPPH radicals; means ± SD of three experiments
Experimental: To evaluate the antioxidant potential of compounds as radical scavengers versus the stable free radicals, 2,2-diphenylpicrylhydrazyl (DPPH) was applied. Antioxidant properties were expressed as the IC50 value—the concentration of compound required for scavenging 50% of DPPH radicals. […].
The DPPH free radical scavenging activities of the synthesized compounds were measured by DPPH, according to the method described in the paper. The free radical scavenging activity was measured as a decrease in the absorbance of DPPH, and calculated using the equation:DPPH scavenging effects (%) = […] [(A0 − A1)/A0]∙100](2) where: A0 was the absorbance of the control reaction and A1 absorbance in the presence of the sample of the analysed compounds [62]. The IC50 values were calculated as the concentration of compound required for scavenging 50% of DPPH [45]. Results were presented as the mean ± standard deviation (SD). The antioxidant activity data were compared using the one-way ANOVA test at the significance level 5%.

[6] = target: T1, Acetylcholinesterase (AChE, E.C. 3.1.1.7, from human erythrocytes) (Homo sapiens, UniProt P22303); test: biochemical
T1 construct: Acetylcholinesterase (AChE, E.C. 3.1.1.7, from human erythrocytes); purchased Sigma-Aldrich (Steinheim, Germany); host or cells: human erythrocytes (natural source)
Experimental: (§6) The compounds were evaluated by an in vitro assay as the AChE and BChE inhibitors. The studies were carried out using the modified Ellman’s method. […] The inhibitory activities against AChE and BChE of the newly-synthesized compounds were determined exactly, according to a previous paper. […] The samples were analysed in triplicate. IC50 values were designated from a dose–response curve obtained by plotting the percentage of inhibition versus the log concentration, using GraphPad Prism 8 software. […] AChE and BChE activity data were compared using the Kruskal–Wallis test at the significance level of 1%.

[7] = target: T2, butyrylcholinesterase (BChE, E.C. 3.1.1.8, from equine serum) (Equus caballus, UniProt P81908); test: biochemical; details: means ± SEM of three independent experiments
T2 construct: butyrylcholinesterase (BChE, E.C. 3.1.1.8, from equine serum); purchased Sigma-Aldrich (Steinheim, Germany); host or cells: equine serum (natural source)
Experimental: as §6

[8] = system: T47D (breast cancer) cells; test: SRB antiproliferative assay, T47D; type: cell-based, human; details: Homo sapiens, T47D, 72 h, means ± SD
Experimental: as §4, §5

[9] = Lipophilicity by RP-18 HPLC chromatography; type: physicochemical
Source text: The lipophilicity parameter was estimated for the tested compounds as it is an important feature that influences the pharmacokinetic properties of bioactive compounds [46, 47]. Lipophilicity also determines some biological activities, such as the antiproliferative or fungistatic activity. For lipophilicity determination, reversed-phase column chromatography was used, with the octadecyl C-18 stationary phase and MeOH as the organic modifier in the isocratic conditions.
HPLC measurements were performed using a liquid chromatograph (Knauer, Berlin, Germany) with a dual pump and a UV-visible detector. The measurements were made at 254 or 320 nm at room temperature. A Eurosil Bioselect C18 (5 μm, 300 × 4.6 mm) column was applied as the stationary phase. The mobile phase consisted of different volume mixtures of 20 mM acetate buffer as the aqueous phase, and MeOH as the organic modifier (pH 7.4). The different concentrations of MeOH from 0.5 to 0.90 (v/v) range was used, depending on the structure of the compound at 0.05 intervals. The flow rate was 1 mL/min. Retention time of an unretained solute (t0) was determined by the injection of a small amount of acetone dissolved in water.
Regular changes in the retention coefficients of compounds in a function of the organic modifier MeOH content in the mobile phase are described by the Soczewiński–Wachtmeister equation [56]:log k = log kw + S φ(1)
φ—the volume fraction of organic modifier (MeOH) in the mobile phase; log kw—the intercept; S—slope of the regression curve. Log kw refers to the retention parameter of a compound with pure water as the mobile phase.

[10] = system: human cancer cell lines (HCV29T, T47D, A549, SW707); test: SRB antiproliferative assay, all studied cancer cell lines; type: cell-based; details: read-out: IC50 range against all studied cells
Experimental: as §4, §5

[11] = system: SW707 (rectal adenocarcinoma) cells; test: SRB antiproliferative assay, SW707; type: cell-based, human; details: Homo sapiens, SW707, 72 h, means ± SD, read-out: IC50 SW 707
Experimental: as §4, §5

T1 sequence (P22303 other isoform, or with tags, fused parts or gaps): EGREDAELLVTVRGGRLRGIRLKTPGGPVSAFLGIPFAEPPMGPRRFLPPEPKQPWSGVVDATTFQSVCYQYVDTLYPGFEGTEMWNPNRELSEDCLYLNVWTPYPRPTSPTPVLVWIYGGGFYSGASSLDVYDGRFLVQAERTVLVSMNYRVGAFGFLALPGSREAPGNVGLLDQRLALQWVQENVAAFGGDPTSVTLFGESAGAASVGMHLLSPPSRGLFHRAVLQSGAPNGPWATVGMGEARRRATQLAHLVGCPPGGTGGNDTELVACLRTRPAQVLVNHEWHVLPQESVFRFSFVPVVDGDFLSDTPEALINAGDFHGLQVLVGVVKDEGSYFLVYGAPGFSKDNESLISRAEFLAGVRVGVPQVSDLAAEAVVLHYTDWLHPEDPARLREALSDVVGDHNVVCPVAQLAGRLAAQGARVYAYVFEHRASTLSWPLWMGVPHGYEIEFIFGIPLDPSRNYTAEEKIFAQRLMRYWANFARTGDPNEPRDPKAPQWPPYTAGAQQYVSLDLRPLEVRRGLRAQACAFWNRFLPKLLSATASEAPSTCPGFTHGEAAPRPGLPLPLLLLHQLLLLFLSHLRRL
T2 sequence (P81908 whole entry): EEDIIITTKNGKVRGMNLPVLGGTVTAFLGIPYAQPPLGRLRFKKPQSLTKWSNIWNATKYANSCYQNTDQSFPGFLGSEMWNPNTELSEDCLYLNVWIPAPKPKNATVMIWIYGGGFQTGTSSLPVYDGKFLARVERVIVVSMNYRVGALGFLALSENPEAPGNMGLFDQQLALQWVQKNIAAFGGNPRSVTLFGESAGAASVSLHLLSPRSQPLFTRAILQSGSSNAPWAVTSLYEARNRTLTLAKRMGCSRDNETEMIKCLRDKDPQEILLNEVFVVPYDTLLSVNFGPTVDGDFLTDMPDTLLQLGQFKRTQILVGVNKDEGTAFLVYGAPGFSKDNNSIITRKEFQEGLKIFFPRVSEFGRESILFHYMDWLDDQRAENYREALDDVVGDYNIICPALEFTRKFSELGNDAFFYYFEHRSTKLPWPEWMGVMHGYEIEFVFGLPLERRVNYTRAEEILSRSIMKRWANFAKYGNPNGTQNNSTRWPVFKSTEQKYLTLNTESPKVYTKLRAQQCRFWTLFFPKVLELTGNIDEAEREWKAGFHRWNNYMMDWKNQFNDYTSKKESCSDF

Compound: Oc1cc(O)c(-c2nc3c(ccc4ccccc43)o2)cc1Cl [Compound 10, 4-Chloro-6-(naphtho[1,2-d][1,3]oxazol-2-yl)benzene-1,3-diol]
- change in level of lactate dehydrogenase ([1]; 0.1–5 µM, vs control): statistically significant reduction
- toxicity to normal breast cells (LDH release) ([1]; tested concentration to 25 µM): not toxic
- IC50 [2]: 2710 ± 120 nM
- IC50 [3]: 2240 ± 830 nM
- toxicity to keratinocytes (LDH release) [4]: not toxic
- IC50 [5]: 633 ± 146 nM
- Selectivity for AChE ([6]; IC50 (BChE)/IC50 (AChE)): 1.278
- IC50 ([6]; means ± SEM of three independent experiments): 694 ± 11 nM
- IC50 [7]: 887 ± 41 nM
- IC50 [8]: 2180 ± 1050 nM
- -S (slope of log k vs MeOH fraction) ([9]; MeOH/acetate buffer, pH 7.4): 4.996
- log kw ([9]; pH 7.4, extrapolation to pure water as mobile phase): 4.518
- IC50 [10]: 2180 to 2890 nM
- IC50 [11]: 2890 ± 340 nM
